Assay results from patent publication US20100234238A1, “METHOD FOR PROFILING KINASE INHIBITORS” (Janssen Pharmaceutica N V, priority 2006, published 2010).

Tested on: tyrosine kinase activity in xenograft tumor lysates
Assay: PAMCHIP96 (140-peptide array) profiling of xenograft tumor lysates in absence or presence of MTKI
Assay type: biochemical
Conditions: 5 μM
Protocol: 100 mg of frozen tumor or tissue blocks, or sections, are lysed in 1 ml of M-PER buffer (PIERCE) containing phosphatase and protease inhibitors (HALT, PIERCE). The suspension is mixed using a ULTRA-TURRAX blender (IKA werke), and centrifuged twice for 10 minutes at 12 000×g. Supernatant lysates are filtered through a 0.2 micrometer filter (Anotop 0.2 μm anopore filter; Whatmann). Lysates are flash frozen in liquid nitrogen and stored at −80C.
Just prior to the PAMCHIP experiment, total protein content is quantitated in the lysates and lysates are diluted to 1 mg/ml in a total volume of 200 μl, with M-PER phosphatase and protease inhibitors (HALT, PIERCE). 10 μg of total lysate (corresponding to 10 μl) will be used per well on the PAMCHIP96.
To all 200 μl lysates 10 units of benzonase (Novagen) is added and lysates are further incubated for 30 min on ice and next centrifuged for 10 minutes at 12 000×g. The supernatant is then 1:1 diluted with compound or DMSO diluted to the appropriate concentration in water, and lysates are further incubated exactly 60 min on ice. Meanwhile, a PAMCHIP96 tyrosine peptide chip (PAMGENE) is blocked with 2% BSA (filtered through a 0.2 μm anopore filter; Whatmann) using the standard setting of a PAMSTATION96 (PAMGENE).
The composition of the kinase buffer is as follows: 1×ABL buffer (NEB), 0.5 mg/ml BSA (from 10 mg/ml NEB stock), 100 μM ATP (dissolved and diluted in 1×ABL buffer), 5 μg/ml PY20-FITC (ExAlpha Biologicals, azide-free preparation). A twofold concentrated kinase buffer is prepared chilled on ice, DMSO or compound is added as appropriate, and the solution is added 1:1 to the (compound treated) ice cold lysates, and immediately applied to a tyrosine peptide PAMCHIP96. The assay is run on a PAMSTATION96 according to standard procedures: after loading of the plate, solution is pumped once onto the wells, a first exposure is read (150 mSec) and then a kinetic reading program (reading every 5 min for 150 mSec) is run for 60 min. Lysates are run in 6 technical replicates for each condition; replicates are always applied horizontally next to each other to avoid vertical strip effects of the chip.
The data (spot images) are further quantified and linked to the peptide identities using EVOLVE PAMGRID software (PAMGENE). The quantified data are then fit to a curve using CurveFitHT software (PAMGENE) using the Vinip2 curve fitting algorithm, applied on the first 30 min of the assay; the initial velocity is derived at the first kinetic time point read. All subsequent data analyses were done on initial velocities (Vini) using the software packages Omniviz and R (Ihaka, R. and Gentlemen, R. (1996) R: a language for data analysis and graphics. J. Comput. Graph. Stat., 5, 299-314).
After replacing the Vini's lower than 0.1 by 0.1, all Vini's were log 2-transformed to approach normality. […] This test was done for each peptide separately using a mixed model (Littell, R. C., Milliken, G. A., Stroup, W. W., Wolfinger, R. D. 1996. SAS system for mixed models. Cary, N. C.: SAS Institute Inc.) allowing the incorporation of both technical variation (i.e., the variation across replicates) and biological variation (i.e., the variation among the various responding and non-responding cell lines or tumors). Variation between cell lines or tumors in Vini and in treatment effect on Vini was modeled respectively by random intercepts and random compound effects per cell line or tumor, nested in response status. The difference in compound-induced reduction in Vini between responding and non-responding cell lines or tumors was tested through the interaction between compound treatment and response status, both modeled as fixed effects.

## COc1cc2ncnc3c2cc1OCCCCCN(C)Cc1ccc(Br)cc1N3 [MTKI, 4,6-ethanediylidenepyrimido[4,5-b][6,1,12]benzoxadiazacyclopentadecine, 17-bromo-8,9,10,11,12,13,14,19-octahydro-20-methoxy-13-methyl-]
H322 xenograft tumor lysate, CDK7_157_169_S164
  ratio of initial velocity of peptide phosphorylation: 0.77
H322 xenograft tumor lysate, EPHB1_921_933_Y928
  ratio of initial velocity of peptide phosphorylation: 0.75
H322 xenograft tumor lysate, FAK1_569_581_Y576/Y577
  ratio of initial velocity of peptide phosphorylation: 0.82
H322 xenograft tumor lysate, GSK3B_209_221_Y216
  ratio of initial velocity of peptide phosphorylation: 0.77
H322 xenograft tumor lysate, K2C6E_53_65_S59
  ratio of initial velocity of peptide phosphorylation: 0.80
H322 xenograft tumor lysate, MBP_259_271_Y261/Y268/S266
  ratio of initial velocity of peptide phosphorylation: 0.65
H322 xenograft tumor lysate, MK10_216_228_T221/Y223
  ratio of initial velocity of peptide phosphorylation: 0.68
H322 xenograft tumor lysate, NCF1_313_325_S315/S320
  ratio of initial velocity of peptide phosphorylation: 0.78
H322 xenograft tumor lysate, NTRK2_699_711_Y702/Y706/Y707
  ratio of initial velocity of peptide phosphorylation: 0.76
H322 xenograft tumor lysate, P2AB_297_309_T304/Y307
  ratio of initial velocity of peptide phosphorylation: 0.77
H322 xenograft tumor lysate, PGFRB_572_584_Y579/Y581
  ratio of initial velocity of peptide phosphorylation: 0.67
H322 xenograft tumor lysate, RAF1_331_343_S337/S338/Y339/Y340
  ratio of initial velocity of peptide phosphorylation: 0.79
H322 xenograft tumor lysate, RB_804_816_S807/S811
  ratio of initial velocity of peptide phosphorylation: 0.75
H322 xenograft tumor lysate, SYN1_2_14_S9
  ratio of initial velocity of peptide phosphorylation: 0.78
H322 xenograft tumor lysate, TYRO3_679_691_Y686
  ratio of initial velocity of peptide phosphorylation: 0.80
H322 xenograft tumor lysate, VEGFR2_944_956_Y951
  ratio of initial velocity of peptide phosphorylation: 0.75
H322 xenograft tumor lysate, VINC_815_827_Y821
  ratio of initial velocity of peptide phosphorylation: 0.76
H3255 xenograft tumor lysate, CDK7_157_169_S164
  ratio of initial velocity of peptide phosphorylation: 0.45
H3255 xenograft tumor lysate, EPHB1_921_933_Y928
  ratio of initial velocity of peptide phosphorylation: 0.44
H3255 xenograft tumor lysate, FAK1_569_581_Y576/Y577
  ratio of initial velocity of peptide phosphorylation: 0.48
H3255 xenograft tumor lysate, GSK3B_209_221_Y216
  ratio of initial velocity of peptide phosphorylation: 0.57
H3255 xenograft tumor lysate, K2C6E_53_65_S59
  ratio of initial velocity of peptide phosphorylation: 0.56
H3255 xenograft tumor lysate, MBP_259_271_Y261/Y268/S266
  ratio of initial velocity of peptide phosphorylation: 0.47
H3255 xenograft tumor lysate, MK10_216_228_T221/Y223
  ratio of initial velocity of peptide phosphorylation: 0.31
H3255 xenograft tumor lysate, NCF1_313_325_S315/S320
  ratio of initial velocity of peptide phosphorylation: 0.73
H3255 xenograft tumor lysate, NTRK2_699_711_Y702/Y706/Y707
  ratio of initial velocity of peptide phosphorylation: 0.48
H3255 xenograft tumor lysate, P2AB_297_309_T304/Y307
  ratio of initial velocity of peptide phosphorylation: 0.66
H3255 xenograft tumor lysate, PGFRB_572_584_Y579/Y581
  ratio of initial velocity of peptide phosphorylation: 0.66
H3255 xenograft tumor lysate, RAF1_331_343_S337/S338/Y339/Y340
  ratio of initial velocity of peptide phosphorylation: 0.53
H3255 xenograft tumor lysate, RB_804_816_S807/S811
  ratio of initial velocity of peptide phosphorylation: 0.52
H3255 xenograft tumor lysate, SYN1_2_14_S9
  ratio of initial velocity of peptide phosphorylation: 0.50
H3255 xenograft tumor lysate, TYRO3_679_691_Y686
  ratio of initial velocity of peptide phosphorylation: 0.51
H3255 xenograft tumor lysate, VEGFR2_944_956_Y951
  ratio of initial velocity of peptide phosphorylation: 0.52
H3255 xenograft tumor lysate, VINC_815_827_Y821
  ratio of initial velocity of peptide phosphorylation: 0.40
SUM149 xenograft tumor lysate, EPHB1_921_933_Y928
  ratio of initial velocity of peptide phosphorylation: 0.85
SUM149 xenograft tumor lysate, FAK1_569_581_Y576/Y577
  ratio of initial velocity of peptide phosphorylation: 0.94
SUM149 xenograft tumor lysate, GSK3B_209_221_Y216
  ratio of initial velocity of peptide phosphorylation: 0.91
SUM149 xenograft tumor lysate, K2C6E_53_65_S59
  ratio of initial velocity of peptide phosphorylation: 0.86
SUM149 xenograft tumor lysate, MBP_259_271_Y261/Y268/S266
  ratio of initial velocity of peptide phosphorylation: 1.04
SUM149 xenograft tumor lysate, MK10_216_228_T221/Y223
  ratio of initial velocity of peptide phosphorylation: 0.75
SUM149 xenograft tumor lysate, NCF1_313_325_S315/S320
  ratio of initial velocity of peptide phosphorylation: 0.94
SUM149 xenograft tumor lysate, NTRK2_699_711_Y702/Y706/Y707
  ratio of initial velocity of peptide phosphorylation: 0.85
SUM149 xenograft tumor lysate, P2AB_297_309_T304/Y307
  ratio of initial velocity of peptide phosphorylation: 0.87
SUM149 xenograft tumor lysate, PGFRB_572_584_Y579/Y581
  ratio of initial velocity of peptide phosphorylation: 0.69
SUM149 xenograft tumor lysate, RAF1_331_343_S337/S338/Y339/Y340
  ratio of initial velocity of peptide phosphorylation: 0.99
SUM149 xenograft tumor lysate, RB_804_816_S807/S811
  ratio of initial velocity of peptide phosphorylation: 0.83
SUM149 xenograft tumor lysate, SYN1_2_14_S9
  ratio of initial velocity of peptide phosphorylation: 1.01
SUM149 xenograft tumor lysate, TYRO3_679_691_Y686
  ratio of initial velocity of peptide phosphorylation: 1.03
SUM149 xenograft tumor lysate, VEGFR2_944_956_Y951
  ratio of initial velocity of peptide phosphorylation: 0.86
SUM149 xenograft tumor lysate, VINC_815_827_Y821
  ratio of initial velocity of peptide phosphorylation: 0.75
